Columns and labels:
CCI-induced pain in rats = details: literature; cited from earlier work
[1] = tested on: Streptozocin (STZ)-induced diabetes neuropathy in the rat; test: STZ-induced static allodynia (von Frey hairs, PWT); assay type: in vivo; details: compound 25 mg/kg PO; gabapentin 100 mg/kg PO (positive control)
Experimental: (§1) Male Sprague Dawley rats weighing 150-400 g obtained from Charles River (Manston, Kent, UK.) were housed in groups of 3. All animals were kept under a 12 h light/dark cycle (lights on at 07 h 00 min) with food and water ad libitum. All experiments were carried out by an observer blind to the treatments and in accordance with the Home Office Animals (Scientific Procedures) Act 1986.
(§2) Diabetes was induced by a single intraperitoneal injection of streptozotocin (50 mg/kg) freshly dissolved in 0.9% sterile saline. Streptozotocin injection induces a reproducible mechanical allodynia within 3 weeks, lasting for at least 7 weeks (Chen and Pan, (Chen S R and Pan H L. Hypersensitivity of Spinothalamic Tract Neurons Associated With Diabetic Neuropathic Pain in Rats. J Neurophysiol 87: 2726-2733, 2002).
Animals were habituated to wire bottom test cages prior to the assessment of allodynia. Static allodynia was evaluated by application of von Frey hairs (Stoelting, Wood Dale, Ill., USA.) in ascending order of force (0.6, 1, 1.4, 2, 4, 6, 8, 10, 15 and 26 grams) to the plantar surface of hind paws. Each von Frey hair was applied to the paw for a maximum of 6 sec, or until a withdrawal response occurred. Once a withdrawal response to a von Frey hair was established, the paw was re-tested, starting with the filament below the one that produced a withdrawal, and subsequently with the remaining filaments in descending force sequence until no withdrawal occurred. The highest force of 26 g lifted the paw as well as eliciting a response, thus represented the cut off point. Each animal had both hind paws tested in this manner. The lowest amount of force required to elicit a response was recorded as paw withdrawal threshold (PWT) in grams. Static allodynia was defined as present if animals responded to a stimulus of, or less than, 4 g, which is innocuous in naive rats (Field M J, Bramwell S, Hughes J, Singh L. Detection of static and dynamic components of mechanical allodynia in rat models of neuropathic pain: are they signalled by distinct primary sensory neurones? Pain, 1999; 83:303-11).
(§3) All the experiments were conducted blind. Static allodynia was expressed as median [LQ; UQ] and analysed by Mann Whitney U test. Dynamic allodynia and thermal hyperalgesia were expressed as arithmetic mean±SEM and analysed by ANOVA.

[2] = tested on: Streptozocin (STZ)-induced diabetes neuropathy in the rat; test: STZ-induced dynamic allodynia (cotton bud, PWL); assay type: in vivo; details: compound 25 mg/kg PO; gabapentin 100 mg/kg PO (positive control)
Experimental: as §1, §2
Dynamic allodynia was assessed by lightly stroking the plantar surface of the hind paw with a cotton bud. To avoid recording general motor activity, care was taken to perform this procedure in fully habituated rats that were not active. At least two measurements were taken at each time point, the mean of which represented the paw withdrawal latency (PWL). […] A pain withdrawal response was often accompanied with repeated flinching or licking of the paw. Dynamic allodynia was considered to be present if animals responded to the cotton stimulus within 8 sec of commencing stroking (Field et al, 1999).
as §3

[3] = tested on: Chronic Constriction Injury (CCI) rat model of neuropathic pain; details: literature; cited from earlier work
[4] = tested on: Chronic Constriction Injury (CCI) rat model of neuropathic pain; details: literature; cited from earlier work; remark: listed apart in the source
[5] = tested on: Streptozocin (STZ)-induced diabetes neuropathy in the rat; details: literature; cited from earlier work
[6] = tested on: Streptozocin (STZ)-induced diabetes neuropathy in the rat; details: literature; cited from earlier work; remark: listed apart in the source
[7] = tested on: Carrageenan-induced thermal hyperalgesia (CITH) in the rat; test: Carrageenan-induced thermal hyperalgesia (CITH), rat plantar test; assay type: in vivo; details: 3 mg/kg SC
Experimental: as §1
Thermal hyperalgesia was assessed using the rat plantar test (Ugo Basile, Comerio, Italy), according to a method modified by Hargreaves et al. (1988). Briefly, rats were habituated to the apparatus that consisted of three individual Perspex boxes on a glass table. A mobile radiant heat source was located under the table and focused onto the desired paw. Paw withdrawal latencies (PWLs) were recorded three times for both hind paws of each animal, the mean of which represented baseline for left and right hind paws. The apparatus was calibrated to give a PWL of approximately 10 s in naïve rats. To prevent tissue damage of the plantar zone, a 22.5 sec cut-off was observed. Lambda carrageenan was injected intraplantarly (100 μl, 20 mg/ml) the right hind paw and baseline recordings of PWT were taken 2 hr post administration.
as §3

CRTH2 receptor = target: T1, CRTH2 receptor (Homo sapiens, UniProt Q9Y5Y4); test: calcium mobilization in cells that express CRTH2 receptor; assay type: cell-based; details: absence of test compound, Indo-1 fluorescence; read-out: EC50 of increased [Ca2+]i
T1 construct: Flag peptide (behind a 'prolac' signal peptide) (N); expressed in transfected cells
T1 sequence (Q9Y5Y4 1-395): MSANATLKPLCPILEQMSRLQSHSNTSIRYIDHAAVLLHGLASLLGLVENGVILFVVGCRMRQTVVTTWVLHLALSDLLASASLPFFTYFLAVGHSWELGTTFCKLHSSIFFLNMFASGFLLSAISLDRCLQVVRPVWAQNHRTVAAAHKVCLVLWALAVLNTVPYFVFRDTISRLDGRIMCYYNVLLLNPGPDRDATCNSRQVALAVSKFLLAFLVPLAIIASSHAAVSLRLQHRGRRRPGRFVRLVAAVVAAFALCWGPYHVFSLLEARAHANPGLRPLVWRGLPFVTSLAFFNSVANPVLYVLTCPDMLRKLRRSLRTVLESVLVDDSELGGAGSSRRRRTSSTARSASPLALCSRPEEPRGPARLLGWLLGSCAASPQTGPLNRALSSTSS
Experimental: The ratio of fluorescence produced by the calcium-bound dye to that produce by the unbound dye is used to estimate the intracellular calcium concentration. In an example method cells that express CRTH2 receptor are collected, and resuspended in fresh media at ˜2×10^5/ml the day before performing the calcium flux assay. Cells are incubated at 37° C. for not longer than 20-30 minutes, and then spun down and resuspended in 50 ml fresh PTI buffer (Hank's Buffer, pH 7.2-7.4; 10 mM Hepes; 1.6 mM CaCl2) containing Indo-1 AM, pre-warmed to 37° C., at a concentration of 10 million per ml. Cells are excited, and fluorescence is measured using a fluorimeter (Photon Technology Corporation, International). After the readout has stabilized, the time axis is reset, and PGD2 is added at a specific time point (e.g., 20 seconds). After response, the following reagents are added to the cuvette, to release and chelate total calcium, in the following order: 20 μl of 18% Triton X-100, 20 μl of 3M Tris, pH 8.5, and 20 μl of 0.5M EGTA, pH 8.5. The experiment is repeated in the presence and the absence of a test compound. […] Therefore, in the presence of an antagonist test compound, the EC50 would be expected to […].

Structure (SMILES)	reversal of CCI-induced pain in rats (Schäfers 2004) (CCI-induced pain in rats)	static allodynia in CCI rat model (Field et al 1999) [3]	dynamic allodynia in CCI rat model (Field et al 1999) [4]	static allodynia in STZ rat model (Field et al 1999) [5]	dynamic allodynia in STZ rat model (Field et al 1999) [6]	also measured
Cc1ccc(-c2cc(C(F)(F)F)nn2-c2ccc(S(N)(=O)=O)cc2)cc1 [Celebrex]	no significant effect					
NCC1(CC(=O)O)CCCCC1 [Gabapentin]		reverse both static and dynamic allodynia	reverse both static and dynamic allodynia	reverse both static and dynamic allodynia	reverse both static and dynamic allodynia	effect on maintenance of STZ-induced static allodynia [1]: complete reversal; effect on maintenance of STZ-induced dynamic allodynia [2]: complete reversal
CN1CC[C@]23c4c5ccc(O)c4O[C@H]2[C@@H](O)C=C[C@H]3[C@H]1C5 [Morphine, reference compound]		reverses static	not dynamic allodynia			analgesic effect of positive control [7]: produced the expected analgesic effect; change of PWLs in both hindpaws ([7]; 30 min post dose): increased the PWLs in both hindpaws over the baseline value of naïve rats
CC(C)Cc1ccc(C(C)C(=O)O)cc1 (centres unmarked) [Ibuprofen]	no significant effect					
CCCCC[C@H](O)/C=C/[C@H]1C(=O)C[C@H](O)[C@@H]1C/C=C\CCCC(=O)O [PGD2, Prostaglandin D2]						EC50 (CRTH2 receptor): 15 nM
CC(C)C[C@H](CN)CC(=O)O [Pregabalin]		reverse both static and dynamic allodynia	reverse both static and dynamic allodynia	reverse both static and dynamic allodynia	reverse both static and dynamic allodynia	
